System: NOMO1
Assay: cell viability relative to DMSO control; higher = less cytotoxic
Conditions: 48 h
In short: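 Three leukemia lines were tested: NOMO1 and SEM at 500 cells/well and P12-Ichikawa at 1000 cells/well. Each was adapted for at least four passages in each medium and seeded in 5 μl in 1536-well plates, and library compounds in DMSO were pin-dosed from 47 μM to 0.79 nM in 11 threefold steps. After 48 h at 37°C, CellTiter-Glo One luminescence was read. Viability is a percentage relative to DMSO wells on each plate, with cell-free wells as background.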

[1] = HPLM + 10% dialyzed FBS, 0.000781 µM
[2] = HPLM + 10% dialyzed FBS, 0.00234 µM
[3] = HPLM + 10% dialyzed FBS, 0.00702 µM
[4] = HPLM + 10% dialyzed FBS, 0.0211 µM
[5] = HPLM + 10% dialyzed FBS, 0.0632 µM
[6] = HPLM + 10% dialyzed FBS, 0.19 µM
[7] = HPLM + 10% dialyzed FBS, 0.569 µM
[8] = HPLM + 10% dialyzed FBS, 1.71 µM
[9] = HPLM + 10% dialyzed FBS, 5.12 µM
[10] = HPLM + 10% dialyzed FBS, 15.4 µM
[11] = HPLM + 10% dialyzed FBS, 46.1 µM
[12] = RPMI 5 mM glucose + 10% FBS, 0.000781 µM
[13] = RPMI 5 mM glucose + 10% FBS, 0.00234 µM
[14] = RPMI 5 mM glucose + 10% FBS, 0.00702 µM
[15] = RPMI 5 mM glucose + 10% FBS, 0.0211 µM
[16] = RPMI 5 mM glucose + 10% FBS, 0.0632 µM
[17] = RPMI 5 mM glucose + 10% FBS, 0.19 µM
[18] = RPMI 5 mM glucose + 10% FBS, 0.569 µM
[19] = RPMI 5 mM glucose + 10% FBS, 1.71 µM
[20] = RPMI 5 mM glucose + 10% FBS, 5.12 µM
[21] = RPMI 5 mM glucose + 10% FBS, 15.4 µM
[22] = RPMI 5 mM glucose + 10% FBS, 46.1 µM
[23] = RPMI 5 mM glucose + 10% dialyzed FBS, 0.000781 µM
[24] = RPMI 5 mM glucose + 10% dialyzed FBS, 0.00234 µM
[25] = RPMI 5 mM glucose + 10% dialyzed FBS, 0.00702 µM
[26] = RPMI 5 mM glucose + 10% dialyzed FBS, 0.0211 µM
[27] = RPMI 5 mM glucose + 10% dialyzed FBS, 0.0632 µM
[28] = RPMI 5 mM glucose + 10% dialyzed FBS, 0.19 µM
[29] = RPMI 5 mM glucose + 10% dialyzed FBS, 0.569 µM
[30] = RPMI 5 mM glucose + 10% dialyzed FBS, 1.71 µM
[31] = RPMI 5 mM glucose + 10% dialyzed FBS, 5.12 µM
[32] = RPMI 5 mM glucose + 10% dialyzed FBS, 15.4 µM
[33] = RPMI 5 mM glucose + 10% dialyzed FBS, 46.1 µM

Compound | cell viability [1] [%] | cell viability [2] [%] | cell viability [3] [%] | cell viability [4] [%] | cell viability [5] [%] | cell viability [6] [%] | cell viability [7] [%] | cell viability [8] [%] | cell viability [9] [%] | cell viability [10] [%] | cell viability [11] [%] | cell viability [12] [%] | cell viability [13] [%] | cell viability [14] [%] | cell viability [15] [%] | cell viability [16] [%] | cell viability [17] [%] | cell viability [18] [%] | cell viability [19] [%] | cell viability [20] [%] | cell viability [21] [%] | cell viability [22] [%] | cell viability [23] [%] | cell viability [24] [%] | cell viability [25] [%] | cell viability [26] [%] | cell viability [27] [%] | cell viability [28] [%] | cell viability [29] [%] | cell viability [30] [%] | cell viability [31] [%] | cell viability [32] [%] | cell viability [33] [%]
CN(C)CC[C@H](CSc1ccccc1)Nc1ccc([S+](=O)([O-])NC(=O)c2ccc(N3CCN(Cc4ccccc4-c4ccc(Cl)cc4)CC3)cc2)cc1[N+](=O)[O-] | 140 | 119 | 125 | 108 | 127 | 92.5 | 96.7 | 102 | 52.7 | 50.2 | 55 | 108 | 118 | 109 | 107 | 99.5 | 98.8 | 89.5 | 80.7 | 50.8 | 49.6 | 60.6 | 115 | 123 | 102 | 114 | 98.3 | 85.3 | 62.7 | 46.1 | 33.9 | 30.6 | 42.5
COc1nccc(-c2c(-c3ccc(F)cc3)ncn2C2CCC(O)CC2)n1 (stereo unspecified) | 120 | 123 | 121 | 123 | 132 | 121 | 111 | 122 | 112 | 119 | 51.3 | 107 | 109 | 120 | 115 | 111 | 112 | 103 | 100 | 98.4 | 100 | 35.9 | 122 | 114 | 126 | 109 | 116 | 118 | 105 | 118 | 111 | 107 | 74.3
C=CCc1cc(OC)c(O)c(C(=O)NCCO)c1 | 98.4 | 113 | 96 | 105 | 105 | 113 | 107 | 106 | 85.7 | 81.4 | 74.2 | 95.3 | 112 | 103 | 96.1 | 101 | 101 | 96.1 | 106 | 93.4 | 101 | 87.1 | 98.5 | 99.5 | 104 | 106 | 109 | 98.6 | 89.7 | 96.7 | 87.7 | 84 | 79.5
COc1ccc(C(=O)CC(=O)c2ccc(C(C)(C)C)cc2)cc1 | 78.3 | 107 | 92.8 | 101 | 108 | 112 | 131 | 130 | 121 | 98.3 | 105 | 101 | 108 | 107 | 110 | 121 | 113 | 122 | 104 | 117 | 122 | 121 | 73 | 102 | 99.9 | 106 | 108 | 111 | 110 | 106 | 115 | 95.7 | 111
O=C(Nc1ccc([N+](=O)[O-])cc1Cl)c1cc(Cl)ccc1O | 103 | 94.9 | 99.2 | 107 | 98.7 | 120 | 111 | 57.4 | 30 | 40.3 | 31.7 | 85.1 | 86.4 | 84.1 | 93 | 94.5 | 89.1 | 82.7 | 62.3 | 32.5 | 72.8 | 48.7 | 88.8 | 94.3 | 91.3 | 90.9 | 103 | 96.4 | 101 | 50.8 | 34.6 | 50.9 | 47.9
COc1ccc2c(OCc3nnc4ccc(-c5ccccc5)nn34)ccnc2c1 | 94.4 | 98.9 | 86.7 | 92.8 | 90.2 | 93.9 | 104 | 83.9 | 94 | 104 | 65.2 | 113 | 123 | 116 | 116 | 117 | 114 | 117 | 116 | 112 | 113 | 116 | 113 | 123 | 133 | 119 | 129 | 102 | 131 | 116 | 115 | 119 | 122
CN1/C=C(\N=C(NC2=CC=C(C=C2)C(=O)N3CCOCC3)/C1=O)/C4=C(C)C(=CC=C4)NC(=O)C5=CC=C(C=C5)C(C)(C)C | 91.6 | 114 | 102 | 85.2 | 103 | 111 | 112 | 110 | 97.2 | 94.2 | 70.7 | 91.4 | 84.4 | 99.5 | 89.5 | 98.3 | 88.7 | 100 | 84.9 | 80.6 | 88.1 | 85.1 | 97.6 | 92.9 | 96.2 | 95.9 | 106 | 100 | 107 | 94.6 | 93.1 | 78.4 | 77.2

— the supplement of paper PMC11451515
